Tests used:
Format in all cases: in vivo
[1] = test system: barnyardgrass (Echinochloa crus-galli); assay: Test B flooded paddy test, plant response rating 0-100; conditions: Flood, 250 g ai/ha; scale 0 to 100 (0 no effect, 100 complete control); 13 to 15 days
Summary of the method: (§1)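 Pots were flooded to 3 cm above the soil surface at treatment, compound applied directly to the paddy water, and that depth held throughout. Plants were kept in a greenhouse for 13 to 15 days, then visually rated against untreated controls.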

[2] = test system: sedge, umbrella (small-flower umbrella sedge, Cyperus difformis); assay: as above; conditions: Flood, 250 g ai/ha; scale 0 to 100 (0 no effect, 100 complete control); 13 to 15 days
Summary of the method: as §1

rice (Oryza sativa) = assay: as above; conditions: Flood, 250 g ai/ha; scale 0 to 100 (0 no effect, 100 complete control); 13 to 15 days
Summary of the method: as §1

[3] = test system: ducksalad (Heteranthera limosa); assay: as above; conditions: Flood, 250 g ai/ha; scale 0 to 100 (0 no effect, 100 complete control); 13 to 15 days
Summary of the method: as §1

[4] = test system: arrowleaf sida (Sida rhombifolia); assay: Test E pre-/postemergence greenhouse test, plant response rating 0-100; conditions: Postemergence
Description: (§2) Seeds of plant species selected from corn (Zea mays), soybean (Glycine max), velvetleaf (Abutilon theophrasti), lambsquarters (Chenopodium album), wild poinsettia (Euphorbia heterophylla), palmer pigweed (Amaranthus palmeri), waterhemp (common waterhemp, Amaranthus rudis), surinam grass (Brachiaria decumbens), large (Lg) crabgrass (Digitaria sanguinalis), Brazilian crabgrass (Digitaria horizontalis), fall panicum (Panicum dichotomiflorum), giant foxtail (Setaria faberii), green foxtail (Setaria viridis), goosegrass (Eleusine indica), johnsongrass (Sorghum halepense), ragweed (common ragweed, Ambrosia elatior), barnyardgrass (Echinochloa crus-galli), sandbur (southern sandbur, Cenchrus echinatus), arrowleaf sida (Sida rhombifolia), Italian ryegrass (Lolium multiflorum), dayflower (Virginia (VA) dayflower, Commelina virginica), field bindweed (Convolvulus arvensis), morningglory (Ipomoea coccinea), nightshade (eastern black nightshade, Solanum ptycanthum), kochia (Kochia scoparia), yellow nutsedge (Cyperus esculentus), smartweed (ladysthumb smartweed, Polygonum persicaria), cocklebur (common cocklebur, Xanthium strumarium), and hairy beggarticks (Bidens pilosa), were planted into a silt loam soil and treated preemergence with test chemicals formulated in a non-phytotoxic solvent mixture which included a surfactant.
(§3) At the same time, plants from these crop and weed species and also waterhemp_RES1, (ALS & Triazine resistant common waterhemp, Amaranthus rudis), and waterhemp_RES2, (ALS & HPPD resistant common waterhemp, Amaranthus rudis) were planted in pots containing Redi-Earth® planting medium (Scotts Company, 14111 Scottslawn Road, Marysville, Ohio 43041) comprising spaghnum peat moss, vermiculite, wetting agent and starter nutrients were treated with postemergence applications of test chemicals formulated in the same manner. Plants ranged in height from 2 to 18 cm for postemergence treatments (1- to 4-leaf stage).
(§4) Treated plants and controls were maintained in a greenhouse for 14 to 21 days, after which time all species were compared to controls and visually evaluated. Plant response ratings, summarized in Table E, are based on a scale of 0 to 100 where 0 is no effect and 100 is complete control. A dash (-) response means no test result.

[5] = test system: dayflower (Virginia (VA) dayflower, Commelina virginica); assay: as above; conditions: Postemergence, scale 0 to 100
Description: as §2, §3, §4

[6] = test system: wild poinsettia (Euphorbia heterophylla); assay: as above; conditions: Postemergence, scale 0 to 100
Description: as §2, §3, §4

[7] = test system: barnyardgrass (Echinochloa crus-galli); assay: as above; conditions: Postemergence, scale 0 to 100
Description: as §2, §3, §4

[8] = test system: sandbur (southern sandbur, Cenchrus echinatus); assay: as above; conditions: Postemergence, scale 0 to 100
Description: as §2, §3, §4

[9] = test system: palmer pigweed (Amaranthus palmeri); assay: as above; conditions: Postemergence, scale 0 to 100
Description: as §2, §3, §4

[10] = test system: waterhemp (common waterhemp, Amaranthus rudis); assay: as above; conditions: Postemergence, scale 0 to 100
Description: as §2, §3, §4

[11] = test system: hairy beggarticks (Bidens pilosa); assay: as above; conditions: Postemergence, scale 0 to 100
Description: as §2, §3, §4

[12] = test system: Brazilian crabgrass (Digitaria horizontalis); assay: as above; conditions: Postemergence, scale 0 to 100
Description: as §2, §3, §4

[13] = test system: fall panicum (Panicum dichotomiflorum); assay: as above; conditions: Postemergence, scale 0 to 100
Description: as §2, §3, §4

[14] = 500 g ai/ha, scale 0 to 100 (0 no effect, 100 complete control)

SMILES: CCn1cc(C(=O)c2ccccc2)c(-c2cc(Br)cc(Br)c2)n1 [Compound 38]
- Plant response rating, Barnyardgrass [1]: 0
- Plant response rating, Sedge, Umbrella [2]: 0
- Plant response rating, Rice (rice (Oryza sativa)): 0
- Plant response rating, Ducksalad [3]: 0

SMILES: Cn1cc(C(=O)c2ccccc2)c(-c2cc(Br)cc(Br)c2)n1 [Compound 53]
- Plant response rating, Barnyardgrass [1]: 0
- Plant response rating, Sedge, Umbrella [2]: 40
- Plant response rating, Rice (rice (Oryza sativa)): 0
- Plant response rating, Ducksalad [3]: 0

SMILES: Fc1ccc(NN=C(c2ccccc2)c2c[nH]nc2-c2cc(Cl)cc(Cl)c2)cc1 [Compound 35]
- Plant response rating, Arrowleaf Sida ([4]; 31 g ai/ha, scale 0 to 100): 50
- Plant response rating, Arrowleaf Sida ([4]; 62 g ai/ha, scale 0 to 100): 60
- Plant response rating, Arrowleaf Sida ([4]; 125 g ai/ha, scale 0 to 100): 70
- Plant response rating, Arrowleaf Sida ([4]; 250 g ai/ha, scale 0 to 100): 80
- Plant response rating, Arrowleaf Sida [4, 14]: 90
- Plant response rating, Dayflower, VA ([5]; 31 g ai/ha): 0
- Plant response rating, Dayflower, VA ([5]; 62 g ai/ha): 0
- Plant response rating, Dayflower, VA ([5]; 125 g ai/ha): 0
- Plant response rating, Dayflower, VA ([5]; 250 g ai/ha): 0
- Plant response rating, Dayflower, VA ([5]; 500 g ai/ha): 0
- Plant response rating, Poinsettia, Wild ([6]; 31 g ai/ha): 0
- Plant response rating, Poinsettia, Wild ([6]; 62 g ai/ha): 0
- Plant response rating, Poinsettia, Wild ([6]; 125 g ai/ha): 0
- Plant response rating, Poinsettia, Wild ([6]; 250 g ai/ha): 0
- Plant response rating, Poinsettia, Wild ([6]; 500 g ai/ha): 0
- Plant response rating, Barnyardgrass ([7]; 31 g ai/ha): 0
- Plant response rating, Barnyardgrass ([7]; 62 g ai/ha): 0
- Plant response rating, Barnyardgrass ([7]; 125 g ai/ha): 0
- Plant response rating, Barnyardgrass ([7]; 250 g ai/ha): 0
- Plant response rating, Barnyardgrass ([7]; 500 g ai/ha): 0
- Plant response rating, Sandbur ([8]; 31 g ai/ha): 0
- Plant response rating, Sandbur ([8]; 62 g ai/ha): 0
- Plant response rating, Sandbur ([8]; 125 g ai/ha): 0
- Plant response rating, Sandbur ([8]; 250 g ai/ha): 0
- Plant response rating, Sandbur ([8]; 500 g ai/ha): 0
- Plant response rating, Pigweed, Palmer ([9]; 31 g ai/ha): 75
- Plant response rating, Pigweed, Palmer ([9]; 62 g ai/ha): 80
- Plant response rating, Pigweed, Palmer ([9]; 125 g ai/ha): 98
- Plant response rating, Pigweed, Palmer ([9]; 250 g ai/ha): 100
- Plant response rating, Pigweed, Palmer ([9]; 500 g ai/ha): 100
- Plant response rating, Waterhemp ([10]; 62 g ai/ha): 85
- Plant response rating, Waterhemp ([10]; 125 g ai/ha): 95
- Plant response rating, Waterhemp ([10]; 250 g ai/ha): 98
- Plant response rating, Waterhemp ([10]; 500 g ai/ha): 100
- Plant response rating, Beggarticks ([11]; 31 g ai/ha): 85
- Plant response rating, Beggarticks ([11]; 62 g ai/ha): 98
- Plant response rating, Beggarticks ([11]; 125 g ai/ha): 98
- Plant response rating, Beggarticks ([11]; 250 g ai/ha): 98
- Plant response rating, Beggarticks ([11]; 500 g ai/ha): 100
- Plant response rating, Crabgrass, Brazil ([12]; 31 g ai/ha): 0
- Plant response rating, Crabgrass, Brazil ([12]; 62 g ai/ha): 0
- Plant response rating, Crabgrass, Brazil ([12]; 125 g ai/ha): 0
- Plant response rating, Crabgrass, Brazil ([12]; 250 g ai/ha): 0
- Plant response rating, Crabgrass, Brazil ([12]; 500 g ai/ha): 10
- Plant response rating, Barnyardgrass [1]: 0
- Plant response rating, Sedge, Umbrella [2]: 0
- Plant response rating, Rice (rice (Oryza sativa)): 0
- Plant response rating, Ducksalad [3]: 0

SMILES: Fc1ccccc1NN=C(c1ccccc1)c1c[nH]nc1-c1cc(Cl)cc(Cl)c1 [Compound 57]
- Plant response rating, Barnyardgrass [1]: 0
- Plant response rating, Sedge, Umbrella [2]: 75
- Plant response rating, Rice (rice (Oryza sativa)): 0
- Plant response rating, Ducksalad [3]: 0

SMILES: Cn1cc(C(=O)c2cccs2)c(-c2cc(Cl)cc(Cl)c2)n1 [Compound 17]
- Plant response rating, Panicum, Fall ([13]; 31 g ai/ha): 0
- Plant response rating, Panicum, Fall ([13]; 62 g ai/ha): 0
- Plant response rating, Panicum, Fall ([13]; 125 g ai/ha): 0
- Plant response rating, Panicum, Fall ([13]; 250 g ai/ha): 0
- Plant response rating, Panicum, Fall ([13]; 500 g ai/ha): 0
- Plant response rating, Arrowleaf Sida ([4]; 31 g ai/ha, scale 0 to 100): 60
- Plant response rating, Arrowleaf Sida ([4]; 62 g ai/ha, scale 0 to 100): 70
- Plant response rating, Arrowleaf Sida ([4]; 125 g ai/ha, scale 0 to 100): 75
- Plant response rating, Arrowleaf Sida ([4]; 250 g ai/ha, scale 0 to 100): 80
- Plant response rating, Arrowleaf Sida [4, 14]: 85
- Plant response rating, Dayflower, VA ([5]; 31 g ai/ha): 0
- Plant response rating, Dayflower, VA ([5]; 62 g ai/ha): 0
- Plant response rating, Dayflower, VA ([5]; 125 g ai/ha): 0
- Plant response rating, Dayflower, VA ([5]; 250 g ai/ha): 0
- Plant response rating, Dayflower, VA ([5]; 500 g ai/ha): 0
- Plant response rating, Poinsettia, Wild ([6]; 31 g ai/ha): 0
- Plant response rating, Poinsettia, Wild ([6]; 62 g ai/ha): 0
- Plant response rating, Poinsettia, Wild ([6]; 125 g ai/ha): 0
- Plant response rating, Poinsettia, Wild ([6]; 250 g ai/ha): 20
- Plant response rating, Poinsettia, Wild ([6]; 500 g ai/ha): 30
- Plant response rating, Barnyardgrass ([7]; 31 g ai/ha): 0
- Plant response rating, Barnyardgrass ([7]; 62 g ai/ha): 0
- Plant response rating, Barnyardgrass ([7]; 125 g ai/ha): 0
- Plant response rating, Barnyardgrass ([7]; 250 g ai/ha): 0
- Plant response rating, Barnyardgrass ([7]; 500 g ai/ha): 20
- Plant response rating, Sandbur ([8]; 31 g ai/ha): 0
- Plant response rating, Sandbur ([8]; 62 g ai/ha): 0
- Plant response rating, Sandbur ([8]; 125 g ai/ha): 0
- Plant response rating, Sandbur ([8]; 250 g ai/ha): 0
- Plant response rating, Sandbur ([8]; 500 g ai/ha): 10
- Plant response rating, Pigweed, Palmer ([9]; 31 g ai/ha): 60
- Plant response rating, Pigweed, Palmer ([9]; 62 g ai/ha): 70
- Plant response rating, Pigweed, Palmer ([9]; 125 g ai/ha): 80
- Plant response rating, Pigweed, Palmer ([9]; 250 g ai/ha): 85
- Plant response rating, Pigweed, Palmer ([9]; 500 g ai/ha): 95
- Plant response rating, Waterhemp ([10]; 31 g ai/ha): 50
- Plant response rating, Waterhemp ([10]; 62 g ai/ha): 80
- Plant response rating, Waterhemp ([10]; 125 g ai/ha): 85
- Plant response rating, Waterhemp ([10]; 250 g ai/ha): 90
- Plant response rating, Waterhemp ([10]; 500 g ai/ha): 95
- Plant response rating, Beggarticks ([11]; 31 g ai/ha): 5
- Plant response rating, Beggarticks ([11]; 62 g ai/ha): 25
- Plant response rating, Beggarticks ([11]; 125 g ai/ha): 35
- Plant response rating, Beggarticks ([11]; 250 g ai/ha): 40
- Plant response rating, Beggarticks ([11]; 500 g ai/ha): 60
- Plant response rating, Crabgrass, Brazil ([12]; 31 g ai/ha): 0
- Plant response rating, Crabgrass, Brazil ([12]; 62 g ai/ha): 0
- Plant response rating, Crabgrass, Brazil ([12]; 125 g ai/ha): 0
- Plant response rating, Crabgrass, Brazil ([12]; 250 g ai/ha): 0
- Plant response rating, Crabgrass, Brazil ([12]; 500 g ai/ha): 15

SMILES: CCOC(OCC)(c1cccs1)c1c[nH]nc1-c1cc(Cl)cc(Cl)c1 [Compound 27]
- Plant response rating, Barnyardgrass [1]: 0
- Plant response rating, Sedge, Umbrella [2]: 0
- Plant response rating, Rice (rice (Oryza sativa)): 0
- Plant response rating, Ducksalad [3]: 0

SMILES: Clc1cc(Cl)cc(-c2n[nH]cc2C(=NNc2ccccc2Cl)c2ccccc2)c1 [Compound 66]
- Plant response rating, Barnyardgrass [1]: 0
- Plant response rating, Sedge, Umbrella [2]: 70
- Plant response rating, Rice (rice (Oryza sativa)): 0
- Plant response rating, Ducksalad [3]: 0

SMILES: CC(C)n1cc(C(=O)c2ccccc2)c(-c2cc(Cl)cc(Cl)c2)n1 [Compound 44]
- Plant response rating, Barnyardgrass [1]: 0
- Plant response rating, Sedge, Umbrella [2]: 0
- Plant response rating, Rice (rice (Oryza sativa)): 0
- Plant response rating, Ducksalad [3]: 0

SMILES: Cn1cc(C(=NN2CCCC2)c2ccccc2)c(-c2cc(Cl)c(Cl)c(Cl)c2)n1 [Compound 25]
- Plant response rating, Sedge, Umbrella [2]: 70
- Plant response rating, Rice (rice (Oryza sativa)): 0
- Plant response rating, Ducksalad [3]: 0
